According to US9296753B2, “Crystalline forms of a Bruton's tyrosine kinase inhibitor” (Pharmacyclics LLC, priority 2012, dated 2016):
≈ marks a conversion by molar mass, not a printed value. Like-named read-outs stand apart in the source and are kept apart here.

Tests used:
[1] = for mass change (GVS): between 0-90% RH
Method: Sorption isotherms were obtained using a SMS DVS Intrinsic moisture sorption analyser, controlled by DVS Intrinsic Control software v1.0.0.30. The sample temperature was maintained at 25° C. by the instrument controls. The humidity was controlled by mixing streams of dry and wet nitrogen, with a total flow rate of 200 ml/min. […] The weight change, (mass relaxation) of the sample as a function of % RH was constantly monitored by the microbalance (accuracy±0.005 mg). Typically 5-20 mg of sample was placed in a tared mesh stainless steel basket under ambient conditions. The sample was loaded and unloaded at 40% RH and 25° C. (typical room conditions). A moisture sorption isotherm was performed as outlined below (2 scans giving 1 complete cycle). The standard isotherm was performed at 25° C. at 10% RH intervals over a 0-90% RH range. Data analysis was undertaken in Microsoft Excel using DVS Analysis Suite v6.0.0.7. The sample was recovered after completion of the isotherm and re-analysed by XRPD.

[2] = Thermodynamic aqueous solubility; format: physicochemical; conditions: water, 25 °C, thermodynamic from solid
Method: The suspension was equilibrated at 25° C. for 24 hours then the pH was measured. The suspension was then filtered through a glass fibre C filter. The filtrate was then diluted by an appropriate factor e.g. 101. Quantitation was by HPLC with reference to a standard solution of approximately 0.25 mg/ml in DMSO. Different volumes of the standard, diluted and undiluted sample solutions were injected. The solubility was calculated using the peak areas determined by integration of the peak found at the same retention time as the principal peak in the standard injection.
Analysis was performed on an Agilent HP1100 series system equipped with a diode array detector and using ChemStation software vB.02.01-SR1.

| changes in the XRPD after GVS analysis [1] | mass change (GVS) ([1]; 25° C.) | solubility at 24 h ([2]; pH 1.2, simulated gastric fluid, pH 1.2, 25° C., 24 hours, read-out: Conc. Found (solubility in aqueous solution)) | solubility at 24 h ([2]; pH 1.64, simulated gastric fluid, pH 1.64, 25° C., 24 hours, read-out: Conc. Found (solubility in aqueous solution)) | solubility at 24 h ([2]; pH 1.95, simulated gastric fluid, pH 1.95, 25° C., 24 hours, read-out: Conc. Found (solubility in aqueous solution)) | solubility at 24 h ([2]; pH 3, aqueous buffer, pH 3, 25° C., 24 hours, read-out: Conc. Found (solubility in aqueous solution)) | solubility at 24 h ([2]; pH 4, aqueous buffer, pH 4, 25° C., 24 hours, read-out: Conc. Found (solubility in aqueous solution)) | solubility at 24 h ([2]; pH 5, aqueous buffer, pH 5, 25° C., 24 hours, read-out: Conc. Found (solubility in aqueous solution)) | solubility at 24 h ([2]; pH 6, aqueous buffer, pH 6, 25° C., 24 hours, read-out: Conc. Found (solubility in aqueous solution)) | solubility at 24 h ([2]; pH 8, aqueous buffer, pH 8, 25° C., 24 hours, read-out: Conc. Found (solubility in aqueous solution)) | solubility at 24 h ([2]; pH 9, aqueous buffer, pH 9, 25° C., 24 hours, read-out: Conc. Found (solubility in aqueous solution)) | solubility at 24 h ([2]; pH 10, aqueous buffer, pH 10, 25° C., 24 hours, read-out: Conc. Found (solubility in aqueous solution)) | hysteresis (GVS) ([1]; 0-90% RH, 25° C.) | solubility at 24 h ([2]; pH 7.42, water, pH of about 7.42, read-out: observed aqueous solubility) | solubility thermodynamic at 24 h ([2]; pH 7.42, water, pH of 7.42) | SMILES |
| --- | --- | --- | --- | --- | --- | --- | --- | --- | --- | --- | --- | --- | --- | --- | --- |
| No significant changes | < 0.3 % w/w | 1300 µg/mL (≈ 2950 µM) | 1070 µg/mL (≈ 2430 µM) | 820 µg/mL (≈ 1860 µM) | 100 µg/mL (≈ 227 µM) | 22 µg/mL (≈ 49.9 µM) | 17 µg/mL (≈ 38.6 µM) | 15 µg/mL (≈ 34.1 µM) | ~13 µg/mL (≈ 29.5 µM) | 20 µg/mL (≈ 45.4 µM) | 10 µg/mL (≈ 22.7 µM) |  |  |  | C=CC(=O)N1CCC[C@@H](n2nc(-c3ccc(Oc4ccccc4)cc3)c3c(N)ncnc32)C1 [Form A, 1-((R)-3-(4-amino-3-(4-phenoxyphenyl)-1H-pyrazolo[3,4-d]pyrimidin-1-yl)piperidin-1-yl)prop-2-en-1-one] |
| No significant changes | 2.3 % w/w |  |  |  |  |  |  |  |  |  |  | No hysteresis | ~9.6 µg/mL (≈ 21.8 µM) | 9.6 µg/mL (≈ 21.8 µM) | C=CC(=O)N1CCC[C@@H](n2nc(-c3ccc(Oc4ccccc4)cc3)c3c(N)ncnc32)C1 [Form B, 1-((R)-3-(4-amino-3-(4-phenoxyphenyl)-1H-pyrazolo[3,4-d]pyrimidin-1-yl)piperidin-1-yl)prop-2-en-1-one] |
